Measured values: the CheMixHub viscosity set

Assay: xn = mol fraction of the nth substance listed

COCCOCCOCCOCCOC + CCCO
viscosity [mPa·s], 101 kPa
Conditions | 298.15 K | 308.15 K
x1 = 0.0071 | 1.913 | 1.492
x1 = 0.0125 | 1.9 | 1.485
x1 = 0.0309 | 1.872 | 1.475
x1 = 0.0504 | 1.852 | 1.463
x1 = 0.1024 | 1.841 | 1.467
x1 = 0.1342 | 1.861 | 1.488
x1 = 0.1847 | 1.908 | 1.528
x1 = 0.2444 | 1.989 | 1.593
x1 = 0.2916 | 2.062 | 1.645
x1 = 0.3271 | 2.126 | 1.697
x1 = 0.369 | 2.192 | 1.754
x1 = 0.4386 | 2.31 | 1.84
x1 = 0.4814 | 2.384 | 1.896
x1 = 0.5238 | 2.466 | 1.953
x1 = 0.5941 | 2.577 | 2.041
x1 = 0.6423 | 2.665 | 2.104
x1 = 0.7174 | 2.797 | 2.205
x1 = 0.7487 | 2.855 | 2.247
x1 = 0.7864 | 2.91 | 2.291
x1 = 0.8401 | 3.007 | 2.36

CCc1ccccc1 + CCC(C)=O
298.15 K, 101.33 kPa
Conditions | viscosity [mPa·s]
x1 = 0.0811 | 0.397
x1 = 0.1608 | 0.416
x1 = 0.2397 | 0.433
x1 = 0.347 | 0.459
x1 = 0.4606 | 0.487
x1 = 0.5818 | 0.516
x1 = 0.7041 | 0.548
x1 = 0.8394 | 0.587

Clc1ccccc1 + CCC(C)=O
303.15 K, 101 kPa
Conditions | viscosity [mPa·s]
x2 = 0.0982 | 0.686
x2 = 0.247 | 0.636
x2 = 0.3771 | 0.593
x2 = 0.5481 | 0.541
x2 = 0.6776 | 0.499
x2 = 0.8508 | 0.482

CCCCn1cc[n+](C)c1.F[P-](F)(F)(F)(F)F + NCCO
viscosity [mPa·s], 101 kPa
Conditions | x2 = 0.1185 | x2 = 0.2113 | x2 = 0.3052 | x2 = 0.4282 | x2 = 0.4918 | x2 = 0.6161 | x2 = 0.6984 | x2 = 0.8022 | x2 = 0.9028
293.15 K | – | 124.5 | 102.5 | 78.15 | 68.3 | 51.7 | 43.55 | 34.1 | 27.33
298.15 K | – | 92.28 | 76.44 | 58.74 | 51.63 | 39.18 | 33.39 | 26.29 | –
303.15 K | – | – | 57.84 | 44.92 | 39.41 | 30.4 | 25.89 | – | –
308.15 K | 67.48 | 54.83 | 44.08 | 34.54 | 30.31 | – | – | – | –
313.15 K | – | 42.41 | 34.89 | 27.36 | – | – | – | – | –
318.15 K | 42.44 | 33.84 | 28.14 | – | – | – | – | – | 9.08
323.15 K | 34.88 | 28.08 | – | – | – | – | – | 9.09 | 7.67

Clc1ccccc1 + CS(C)=O
viscosity [mPa·s]
Conditions | 298.15 K | 299 K | 308.15 K | 318.15 K
101 kPa, x2 = 0.0871 | – | 1.227 | – | –
101 kPa, x2 = 0.2483 | – | 1.401 | – | –
101 kPa, x2 = 0.462 | – | 1.715 | – | –
101 kPa, x2 = 0.5887 | – | 2.067 | – | –
101 kPa, x2 = 0.7046 | – | 2.357 | – | –
101 kPa, x2 = 0.8612 | – | 2.819 | – | –
101.3 kPa, x1 = 0.035 | 1.865 | – | 1.559 | 1.273
101.3 kPa, x1 = 0.072 | 1.803 | – | 1.474 | 1.224
101.3 kPa, x1 = 0.148 | 1.682 | – | 1.39 | 1.142
101.3 kPa, x1 = 0.23 | 1.564 | – | 1.29 | 1.098
101.3 kPa, x1 = 0.317 | 1.421 | – | 1.17 | 1.021
101.3 kPa, x1 = 0.411 | 1.299 | – | 1.077 | 0.927
101.3 kPa, x1 = 0.511 | 1.193 | – | 0.986 | 0.865
101.3 kPa, x1 = 0.619 | 1.085 | – | 0.929 | 0.833
101.3 kPa, x1 = 0.736 | 0.966 | – | 0.823 | 0.742
101.3 kPa, x1 = 0.863 | 0.866 | – | 0.733 | 0.668
101.3 kPa, x1 = 0.936 | 0.826 | – | 0.704 | 0.643
101.33 kPa, x2 = 0.1 | 0.826 | – | 0.738 | 0.656
101.33 kPa, x2 = 0.2 | 0.905 | – | 0.807 | 0.709
101.33 kPa, x2 = 0.3 | 0.993 | – | 0.88 | 0.769
101.33 kPa, x2 = 0.4 | 1.094 | – | 0.958 | 0.832
101.33 kPa, x2 = 0.5 | 1.206 | – | 1.043 | 0.902
101.33 kPa, x2 = 0.6 | 1.329 | – | 1.136 | 0.981
101.33 kPa, x2 = 0.7 | 1.466 | – | 1.239 | 1.068
101.33 kPa, x2 = 0.8 | 1.616 | – | 1.361 | 1.165
101.33 kPa, x2 = 0.9 | 1.784 | – | 1.5 | 1.274

C[NH+](C)CCO.O=C([O-])CCCC(=O)O + O=S1(=O)CCCC1
101 kPa, x1 = 0.27
Conditions | viscosity [mPa·s]
303.15 K | 132.4
313.15 K | 81.7
323.15 K | 54.1

COCCOCCOCCOCCOC + CC1COC(=O)O1
298.15 K, 101.33 kPa
Conditions | viscosity [mPa·s]
x1 = 0.0021 | 2.505
x1 = 0.0047 | 2.51
x1 = 0.0111 | 2.543
x1 = 0.0248 | 2.604
x1 = 0.0362 | 2.663
x1 = 0.0516 | 2.716
x1 = 0.0765 | 2.814
x1 = 0.1064 | 2.935
x1 = 0.1537 | 3.083
x1 = 0.1752 | 3.145
x1 = 0.2194 | 3.268
x1 = 0.259 | 3.355
x1 = 0.3006 | 3.428
x1 = 0.3585 | 3.506
x1 = 0.3967 | 3.56
x1 = 0.4451 | 3.59
x1 = 0.4956 | 3.602
x1 = 0.5433 | 3.607
x1 = 0.6081 | 3.609
x1 = 0.6396 | 3.615
x1 = 0.7173 | 3.588
x1 = 0.782 | 3.559
x1 = 0.8311 | 3.541
x1 = 0.896 | 3.498
x1 = 0.9403 | 3.466

COC(C)(C)C + CO
298.15 K
Conditions | viscosity [mPa·s]
101 kPa, x1 = 0.0512 | 0.547
101 kPa, x1 = 0.0994 | 0.536
101 kPa, x1 = 0.1991 | 0.488
101 kPa, x1 = 0.3011 | 0.455
101 kPa, x1 = 0.4015 | 0.436
101 kPa, x1 = 0.4993 | 0.42
101 kPa, x1 = 0.6001 | 0.402
101 kPa, x1 = 0.7001 | 0.387
101 kPa, x1 = 0.8007 | 0.376
101 kPa, x1 = 0.8998 | 0.366
101 kPa, x1 = 0.9494 | 0.36
101.33 kPa, x1 = 0.0048 | 0.549
101.33 kPa, x1 = 0.0234 | 0.547
101.33 kPa, x1 = 0.0483 | 0.544
101.33 kPa, x1 = 0.0818 | 0.535
101.33 kPa, x1 = 0.1136 | 0.526
101.33 kPa, x1 = 0.1601 | 0.51
101.33 kPa, x1 = 0.1987 | 0.496
101.33 kPa, x1 = 0.2377 | 0.483
101.33 kPa, x1 = 0.2656 | 0.475
101.33 kPa, x1 = 0.3162 | 0.462
101.33 kPa, x1 = 0.3736 | 0.446
101.33 kPa, x1 = 0.4299 | 0.433
101.33 kPa, x1 = 0.481 | 0.42
101.33 kPa, x1 = 0.5141 | 0.413
101.33 kPa, x1 = 0.5796 | 0.399
101.33 kPa, x1 = 0.6163 | 0.394
101.33 kPa, x1 = 0.7002 | 0.382
101.33 kPa, x1 = 0.7768 | 0.37
101.33 kPa, x1 = 0.8313 | 0.363
101.33 kPa, x1 = 0.898 | 0.356
101.33 kPa, x1 = 0.9429 | 0.346
